Test results from patent US20080200404A1, “Novel Antimalarial 9A-Carbamoyl-Aminoalkyl and 9A-Thiocarbamoyl-Aminoalkyl Azalides” (priority 2005, published 2008).
In brackets after ≈: the same amount, converted by molar mass. Where two headings read alike, the source gives them in different places.

Tests used:
Assay type in all cases: cell-based
[1] = tested on: Plasmodium falciparum clone CDC/Indochina III (W-2); assay: In vitro antimalarial [3H]-hypoxanthine incorporation serial dilution assay, W2; details: Plasmodium falciparum; P. falciparum W2, 72 hours exposure
Excerpt: The in vitro screens for intrinsic antimalarial activity were based on modifications of the procedures described by Desjardins R E, Canfield C J, Haynes J D, Chulay J D. (Quantitative assessment of antimalarial activity in vitro by a semiautomated microdilution technique. Antimicrob Agents Chemother. 1979 December; 16(6):710-8.), Chulay J D, Haynes J D, Diggs C L. (Plasmodium falciparum: Assessment of in vitro growth by [3H]hypoxanthine incorporation. Exp. Parasitol. 1983 55:138-146.), and Milhous W K, Weatherly N F, Bowdre J H, Desjardins R E. (In vitro activities of and mechanisms of resistance to antifol antimalarial drugs. Antimicrob Agents Chemother. 1985 April; 27(4):525-30.). The system was limited to the assessment of the intrinsic activity against the erythrocytic asexual life cycle (blood schizontocides). Two Plasmodium falciparum clones from CDC/Indochina III (W-2) and CDC/Sierra Leone I (D-6) (Oduola A M, Weatherly N F, Bowdre J H, Desjardins R E. Plasmodium falciparum: cloning by single-erythrocyte micromanipulation and heterogeneity in vitro. Exp Parasitol. 1988 66(1):86-95.) were used for all assays. TM91C235, a multiple drug resistant isolate from Thailand, was used for the prescreening assay. W-2 is resistant to chloroquine, quinine, and pyrimethamine and susceptible to mefloquine. D-6 tends to be more resistant to mefloquine and susceptible to chloroquine, quinine, and pyrimethamine. All documents cited in this paragraph are incorporated by reference in their entirety.
All parasites were maintained in continuous long term cultures in RPMI-1640 medium supplemented with 6% washed human A positive (A+)(erythrocytes, 25 mM Hepes, […], and 10% heat inactivated A+human plasma or ALBUMAX® (lipid-rich bovine serum albumin; Invitrogen, Carlsbad, Calif.). All cultures and assays were conducted at 37° C. under an atmosphere of 5% CO2 and 5% O2, with a balance of N2.
After the preincubation, [^3H]-hypoxanthine was added to each well of the MTP. (The assay relies on the incorporation of radiolabeled hypoxanthine by the parasites, which indicates reproduction, and inhibition of isotope incorporation was attributed to activity of known or candidate antimalarial drugs). After 72 hr of total incubation time, the MTP were frozen to lyse the erythrocytes and parasites. The parasite DNA was recovered by harvesting the lysate onto glass-fiber filter plates using a Packard FilterMate™ Cell Harvester. The radioactivity was counted on a Packard TopCount™ microplate scintillation counter. The results were recorded as counts per minutes (CPM) per well at each drug concentration divided by the arithmetic mean of the CPM from the three untreated infection parasite control wells.
The serial dilution assay was conducted using the same assay conditions and stock solution of the compound used for the preliminary screen, described above. Both the D-6 and the W-2 clones were used. The compounds were diluted two-fold over 11 different concentration ranges with a starting concentration that was based on the preliminary screen. For each drug, the concentration response profile was determined and 50% inhibitory concentrations (IC50) were determined by using a non-linear, logistic dose response analysis program. […] For each assay, the IC50 for each clone was determined against the known antimalarials chloroquine and mefloquine. These control values established the compound's relative parasite susceptibility profile compared to known antimalarials. […]
The in vitro potency of the compounds has been compared with that of azithromycin to better gauge compounds suitable for further testing. As described above, parasites were exposed for 72 hours. Data from the in vitro potency tests of azithromycin against the three parasite strains have been averaged, and these numbers have been used for identification of “active” macrolide compounds.

[2] = tested on: Plasmodium falciparum clone CDC/Sierra Leone I (D-6); assay: In vitro antimalarial [3H]-hypoxanthine incorporation serial dilution assay, D6; details: Plasmodium falciparum, D6, 72 h, P. falciparum D6, 72 hours exposure
In short: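 Blood-stage cultures in RPMI-1640 with 6% A+ erythrocytes and human plasma or ALBUMAX, 37° C under 5% CO2/5% O2. Compounds in two-fold dilutions over 11 concentrations; [3H]-hypoxanthine incorporation after 72 h total incubation, CPM normalised to untreated parasite controls; IC50 by non-linear logistic fit.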

[3] = tested on: Plasmodium falciparum TM91C235; assay: In vitro antimalarial [3H]-hypoxanthine incorporation assay, TM91C235; details: Plasmodium falciparum; P. falciparum TM91C235 (multiple drug resistant isolate), 72 hours exposure
In short: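 Multidrug-resistant P. falciparum TM91C235 was run at 0.4% parasitemia and 1% hematocrit in folate/PABA-free RPMI-1640 with ALBUMAX, at 37° C under 5% CO2/5% O2. Compound was tested in duplicate at 25,000, 2,500 and 25 ng/ml, preexposed 48 h, then [3H]-hypoxanthine was added (72 h total). Counts are expressed relative to untreated parasite controls.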

[4] = compared with azithromycin, read-out: IC50 D6 (class symbol)

Row | IC50 [1] | IC50 ([2]; read-out: IC50 D6) | IC50 [3] | IC50 [2, 4] | SMILES
1 | 0.714 µg/mL | 0.799 µg/mL | 0.312 µg/mL | – | CC[C@H]1OC(=O)[C@H](C)[C@@H](O[C@H]2C[C@@](C)(OC)[C@@H](O)[C@H](C)O2)[C@H](C)[C@@H](O[C@@H]2O[C@H](C)C[C@H](N(C)C)[C@H]2O)[C@](C)(O)C[C@@H](C)CN(CCCNC(=S)Nc2ccc(N(CC)CC)cc2)[C@H](C)[C@@H](O)[C@]1(C)O.O=CO [Example 121]
2 | 0.297 µg/mL | 0.7 µg/mL | 0.137 µg/mL | – | CC[C@H]1OC(=O)[C@H](C)[C@@H](O[C@H]2C[C@@](C)(OC)[C@@H](O)[C@H](C)O2)[C@H](C)[C@@H](O[C@@H]2O[C@H](C)C[C@H](N(C)C)[C@H]2O)[C@](C)(O)C[C@@H](C)CN(CCCNC(=S)N[C@H]2CCCC[C@@H]2OCc2ccccc2)[C@H](C)[C@@H](O)[C@]1(C)O.O=CO [Example 123]
3 | 0.0575 µg/mL (≈ 0.0558 µM) | 0.0559 µg/mL (≈ 0.0543 µM) | 0.0122 µg/mL (≈ 0.0118 µM) | – | CC[C@H]1OC(=O)[C@H](C)[C@@H](O[C@H]2C[C@@](C)(OC)[C@@H](O)[C@H](C)O2)[C@H](C)[C@@H](O[C@@H]2O[C@H](C)C[C@H](N(C)C)[C@H]2O)[C@](C)(O)C[C@@H](C)CN(CCCNC(=S)Nc2ccc(Cl)c(C(F)(F)F)c2)[C@H](C)[C@@H](O)[C@]1(C)O [Example 124]

Continued, compound first:

Row | SMILES | IC50 [1] | IC50 ([2]; read-out: IC50 D6) | IC50 [3] | IC50 [2, 4]
4 | CC[C@H]1OC(=O)[C@H](C)[C@@H](O[C@H]2C[C@@](C)(OC)[C@@H](O)[C@H](C)O2)[C@H](C)[C@@H](O[C@@H]2O[C@H](C)C[C@H](N(C)C)[C@H]2O)[C@](C)(O)C[C@@H](C)CN(CCCNC(=S)Nc2ccc(OC(F)F)cc2)[C@H](C)[C@@H](O)[C@]1(C)O [Example 106] | 0.0626 µg/mL (≈ 0.063 µM) | 0.215 µg/mL (≈ 0.216 µM) | 0.12 µg/mL (≈ 0.121 µM) | –
5 | CC[C@H]1OC(=O)[C@H](C)[C@@H](O[C@H]2C[C@@](C)(OC)[C@@H](O)[C@H](C)O2)[C@H](C)[C@@H](O[C@@H]2O[C@H](C)C[C@H](N(C)C)[C@H]2O)[C@](C)(O)C[C@@H](C)CN(CCCNC(=S)NCCCSC)[C@H](C)[C@@H](O)[C@]1(C)O [Example 109] | 0.19 µg/mL (≈ 0.202 µM) | 0.843 µg/mL (≈ 0.898 µM) | 0.332 µg/mL (≈ 0.354 µM) | –
6 | CC[C@H]1OC(=O)[C@H](C)[C@@H](O[C@H]2C[C@@](C)(OC)[C@@H](O)[C@H](C)O2)[C@H](C)[C@@H](O[C@@H]2O[C@H](C)C[C@H](N(C)C)[C@H]2O)[C@](C)(O)C[C@@H](C)CN(CCCNC(=S)Nc2ccc(C3CC4CCC3C4)cc2)[C@H](C)[C@@H](O)[C@]1(C)O.O=CO (stereo partly drawn) [Example 110] | 0.0461 µg/mL | 0.247 µg/mL | 0.111 µg/mL | –
7 | C=CCNC(=S)NCCCN1C[C@H](C)C[C@@](C)(O)[C@H](O[C@@H]2O[C@H](C)C[C@H](N(C)C)[C@H]2O)[C@@H](C)[C@H](O[C@H]2C[C@@](C)(OC)[C@@H](O)[C@H](C)O2)[C@@H](C)C(=O)O[C@H](CC)[C@@](C)(O)[C@H](O)[C@H]1C [Example 111] | 0.246 µg/mL (≈ 0.276 µM) | – | 0.459 µg/mL (≈ 0.514 µM) | > 0.797 µg/mL
8 | CCOC(=O)c1ccc(NC(=S)NCCCN2C[C@H](C)C[C@@](C)(O)[C@H](O[C@@H]3O[C@H](C)C[C@H](N(C)C)[C@H]3O)[C@@H](C)[C@H](O[C@H]3C[C@@](C)(OC)[C@@H](O)[C@H](C)O3)[C@@H](C)C(=O)O[C@H](CC)[C@@](C)(O)[C@H](O)[C@H]2C)cc1 [Example 112] | 0.0709 µg/mL (≈ 0.0709 µM) | 0.121 µg/mL (≈ 0.121 µM) | 0.107 µg/mL (≈ 0.107 µM) | –
9 | CC[C@H]1OC(=O)[C@H](C)[C@@H](O[C@H]2C[C@@](C)(OC)[C@@H](O)[C@H](C)O2)[C@H](C)[C@@H](O[C@@H]2O[C@H](C)C[C@H](N(C)C)[C@H]2O)[C@](C)(O)C[C@@H](C)CN(CCCNC(=S)NC2CC2)[C@H](C)[C@@H](O)[C@]1(C)O [Example 113] | 0.605 µg/mL (≈ 0.679 µM) | – | 0.866 µg/mL (≈ 0.972 µM) | > 0.797 µg/mL
